Data on 2 compounds can be found in ChEMBL document CHEMBL5036302, “Amphiol, an Antifungal Fungal Pigment from Pseudogymnoascus sp. PF1464” (2021).

As usually defined, the MIC is the smallest concentration in the dilution series that meets the test's criterion for growth inhibition.

Common to all, as to type: functional
The subject of assay [1] is Schizosaccharomyces pombe. The assay is described as follows: Antifungal activity against Schizosaccharomyces pombe assessed as inhibition of fungal growth by CLSI protocol based microbroth dilution method.
Assay [2] deals with Candida albicans. The assay is described as follows: Antifungal activity against Candida albicans assessed as inhibition of fungal growth by CLSI protocol based microbroth dilution method.
In assay [3] the test system is Aspergillus fumigatus. Put plainly: Antifungal activity against Aspergillus fumigatus assessed as inhibition of fungal growth by CLSI protocol based microbroth dilution method. For orientation: Broth dilution looks for growth in wells or tubes with falling amounts of substance.
Assay [4] relates to Staphylococcus aureus. The assay is described as follows: Antibacterial activity against Staphylococcus aureus assessed as inhibition of bacterial growth by CLSI protocol based microbroth dilution method.
Assay [5] deals with Escherichia coli. Put plainly: Antibacterial activity against Escherichia coli assessed as inhibition of bacterial growth by CLSI protocol based microbroth dilution method.

Converted amounts (≈) assume the structure as drawn.

On to `CC(/C=C/C=C/C=C/C=C/C=C/C=C/c1cc(O)c([C@@H]2O[C@H](CO)[C@@H](O)[C@H](O)[C@H]2O)c(=O)o1)=C\[C@H](C)C(=O)[C@@H](C)C[C@@H](C)[C@H](C)O`, for which the MIC in assay [1] is 0.8 µg/mL (≈ 1.25 µM); in assay [2], 8 µg/mL (≈ 12.5 µM); in assay [3], 16 µg/mL (≈ 25 µM); in assay [4] it was greater than 64 µg/mL; in assay [5], greater than 64 µg/mL.
As to `C[C@@H]1[C@H](O)[C@@H](C)/C=C/C=C/C=C/C=C/C=C/C=C/C=C/[C@H](O[C@@H]2O[C@H](C)[C@@H](O)[C@H](N)[C@@H]2O)C[C@@H]2O[C@](O)(C[C@@H](O)C[C@@H](O)[C@H](O)CC[C@@H](O)C[C@@H](O)CC(=O)O[C@H]1C)C[C@H](O)[C@H]2C(=O)O` [AMPHOTERICIN B], in assay [1], the MIC was found to be 0.13 µg/mL (≈ 0.141 µM).
